According to patent US20130310256A1, “HERBICIDAL COMPOSITIONS COMPRISING 4-AMINO-3-CHLORO-5-FLUORO-6-(4-CHLORO-2-FLUORO-3-METHOXYPHENYL) PYRIDINE-2-CARBOXYLIC ACID OR A DERIVATIVE THEREOF AND VLCFA AND LIPID SYNTHESIS INHIBITING HERBICIDES” (DOW AGROSCIENCES LLC, priority 2008, published 2013):

Assays:
PAPRH = assay: Example III: post-emergence foliar-applied weed control in cereal crops, greenhouse; type: in vivo, Papaver rhoeas L.; details: 21 DAA
Method: (§1) Seeds of the desired test plant species were planted in Sun Gro MetroMix® 306 planting mixture, which typically has a pH of 6.0 to 6.8 and an organic matter content of about 30 percent, in plastic pots with a surface area of 103.2 square centimeters (cm^2). When required to ensure good germination and healthy plants, a fungicide treatment and/or other chemical or physical treatment was applied. The plants were grown for 7-36 days in a greenhouse with an approximate 14 hour photoperiod which was maintained at about 18° C. during the day and 17° C. during the night. Nutrients and water were added on a regular basis and supplemental lighting was provided with overhead metal halide 1000-Watt lamps as necessary. The plants were employed for testing when they reached the second or third true leaf stage.
(§2) Treatments consisted of the benzyl ester of 4-amino-3-chloro-5-fluoro-6-(4-chloro-2-fluoro-3-methoxy-phenyl)pyridine-2-carboxylic acid (Compound A), formulated as an SC (suspension concentrate), and a second cereal herbicide alone and in combination.
(§3) Measured aliquots of the benzyl ester of 4-amino-3-chloro-5-fluoro-6-(4-chloro-2-fluoro-3-methoxy-phenyl)pyridine-2-carboxylic acid (Compound A) were placed in 25 milliliter (mL) glass vials and diluted in a volume of 1.25% (v/v) Agri-dex crop oil concentrated to obtain stock solutions. Compound requirements are based upon a 12 mL application volume at a rate of 187 liters per hectare (L/ha). Spray solutions of the second cereal herbicide and experimental compound mixtures were prepared by adding the stock solutions to the appropriate amount of dilution solution to form 12 mL spray solution with active ingredients in two- and three-way combinations. Formulated compounds were applied to the plant material with an overhead Mandel track sprayer equipped with an 8002E nozzle calibrated to deliver 187 L/ha over an application area of 0.503 square meters (m^2) at a spray height of 18 inches (46 cm) above average plant canopy. Control plants were sprayed in the same manner with the solvent blank.
(§4) The treated plants and control plants were placed in a greenhouse as described above and watered by sub-irrigation to prevent wash-off of the test compounds. After 20-22 days, the condition of the test plants as compared with that of the control plants was determined visually and scored on a scale of 0 to 100 percent where 0 corresponds to no injury and 100 corresponds to complete kill.
(§5) Colby's equation was used to determine the herbicidal effects expected from the mixtures (Colby, S. R. 1967. Calculation of the synergistic and antagonistic response of herbicide combinations. Weeds 15:20-22.).

CIRAR = assay: as above; type: in vivo, Cirsium arvense (L.) Scop.; details: 21 DAA
Method: as §1, §2, §3, §4, §5

KCHSC = assay: as above; type: in vivo, Kochia scoparia (L.) Schrad.; details: 21 DAA
Method: as §1, §2, §3, §4, §5

CYPES = assay: Example I: postemergence foliar-applied weed control, greenhouse; type: in vivo, Cyperus esculentus L. (yellow nutsedge)
STEME = assay: Example III: post-emergence foliar-applied weed control in cereal crops, greenhouse; type: in vivo, Stellaria media (L.) Vill.; details: 21 DAA
Method: as §1, §2, §3, §4, §5

ISCRU = assay: Example I: postemergence foliar-applied weed control, greenhouse; type: in vivo, Ischaemum rugosum Salisb. (saramollagrass); details: 21 DAA
Source text: Seeds or nutlets of the desired test plant species were planted in a soil matrix prepared by mixing a loam or sandy loam soil (e.g., 28.6 percent silt, 18.8 percent clay, and 52.6 percent sand, with a pH of about 5.8 and an organic matter content of about 1.8 percent) and calcareous grit in an 80 to 20 ratio. The soil matrix was contained in plastic pots with a volume of 1 quart and a surface area of 83.6 square centimeters (cm^2). When required to ensure good germination and healthy plants, a fungicide treatment and/or other chemical or physical treatment was applied. The plants were grown for 8-22 days in a greenhouse with an approximate 14 hr photoperiod which was maintained at about 29° C. during the day and 26° C. during the night. Nutrients (Peters Excel® 15-5-15 5-Ca 2-Mg and iron chelate) were applied in the irrigation solution as needed and water was added on a regular basis. Supplemental lighting was provided with overhead metal halide 1000-Watt lamps as necessary. The plants were employed for testing when they reached the first through fourth true leaf stage.
Treatments consisted of the acid or esters of 4-amino-3-chloro-5-fluoro-6-(4-chloro-2-fluoro-3-methoxy-phenyl)pyridine-2-carboxylic acid (Compound A), each formulated as an SC (suspension concentrate), and various herbicidal components alone and in combination. Forms of compound A were applied on an acid equivalent basis.
Other herbicidal components were applied on an active ingredient basis and included very long chain fatty acid (VLCFA) synthesis-inhibiting and fatty acid/lipid synthesis-inhibiting herbicides acetochlor (technical grade material), acetochlor+dichlormid formulated as Topnotch®, pretilachlor (technical grade material), butachlor formulated as Butachlor EC, fentrazamide formulated as Fentrazamide EC, thiobencarb formulated as Bolero® 8EC, cafenstrole formulated as Himeadow® WP or Lapost® Flowable, benfuresate formulated as Full Shot®, dimethenamid-P formulated as Outlook®, indanofan (technical grade material), flufenacet formulated as Define® DF, mefenacet (technical grade material), S-metolachlor formulated as Dual® II Magnum, pethoxamid formulated as Successor® 600, and pyroxasulfone (technical grade material).
Treatment requirements were calculated based upon the rates being tested, the concentration of active ingredient or acid equivalent in the formulation, and a 12 mL application volume at a rate of 187 L/ha.
For treatments comprised of formulated compounds, measured amounts of compounds were placed individually in 25 mL glass vials and diluted in a volume of 1.25% (v/v) Agri-Dex® crop oil concentrated to obtain 12× stock solutions. […]

SINAR = assay: Example III: post-emergence foliar-applied weed control in cereal crops, greenhouse; type: in vivo, Sinapis arvensis L.; details: 21 DAA
Method: as §1, §2, §3, §4, §5

COc1c(Cl)ccc(-c2nc(C(=O)OCc3ccccc3)c(Cl)c(N)c2F)c1F [Compound A Benzyl Ester, benzyl ester of 4-amino-3-chloro-5-fluoro-6-(4-chloro-2-fluoro-3-methoxy-phenyl)pyridine-2-carboxylic acid]
Visual Weed Control PAPRH Obs (PAPRH; 2.5 gai/ha): 48% | Visual Weed Control PAPRH Obs (PAPRH; 5 gai/ha): 28% | Visual Weed Control PAPRH Obs (PAPRH; 10 gai/ha): 35% | Visual Weed Control CIRAR Obs (CIRAR; 2.5 gai/ha): 48% | Visual Weed Control CIRAR Obs (CIRAR; 5 gai/ha): 39% | Visual Weed Control CIRAR Obs (CIRAR; 10 gai/ha): 60% | Visual Weed Control KCHSC Obs (KCHSC; 2.5 gai/ha): 20% | Visual Weed Control KCHSC Obs (KCHSC; 5 gai/ha): 41% | Visual Weed Control KCHSC Obs (KCHSC; 10 gai/ha): 62% | Visual Weed Control (%) - 20 DAA CYPES Obs (CYPES; 8 gae/ha): 0% | Visual Weed Control (%) - 21 DAA CYPES Obs (CYPES; 8 gae/ha): 85% | Visual Weed Control (%) - 20 DAA CYPES Obs (CYPES; 16 gae/ha): 75% | Visual Weed Control STEME Obs (STEME; 2.5 gai/ha): 25% | Visual Weed Control STEME Obs (STEME; 5 gai/ha): 25% | Visual Weed Control STEME Obs (STEME; 10 gai/ha): 27% | Visual Weed Control Obs (ISCRU; 8 gae/ha): 20% | Visual Weed Control Obs (ISCRU; 16 gae/ha): 0% | Visual Weed Control SINAR Obs (SINAR; 2.5 gai/ha): 70% | Visual Weed Control SINAR Obs (SINAR; 5 gai/ha): 73%
